{"source": "paper PMC5218480", "about": "(PLoS ONE, 2017)", "system": "MV-4-11 cells", "test": "Gene expression microarray analysis (Affymetrix PrimeView) and GSEA", "type": "cell-based, human", "parameters": "RFU PODN (11730768_x_at) / Fold change /veh PODN (11730768_x_at) / RFU LINC00158 (11744669_a_at) / Fold change /veh LINC00158 (11744669_a_at) / RFU DUSP10 (11751237_a_at) / Fold change /veh DUSP10 (11751237_a_at) / RFU ID3 (11757404_x_at) / Fold change /veh ID3 (11757404_x_at) / RFU PLEKHG5 (11737974_s_at) / Fold change /veh PLEKHG5 (11737974_s_at) / RFU LRRC4B (11730491_at) / Fold change /veh LRRC4B (11730491_at) / RFU GIMAP4 (11747438_a_at) / Fold change /veh GIMAP4 (11747438_a_at) / RFU KRT8 (11758183_x_at) / Fold change /veh KRT8 (11758183_x_at) / RFU CNN1 (11734310_a_at) / Fold change /veh CNN1 (11734310_a_at) / RFU VPS37D (11726825_at) / Fold change /veh VPS37D (11726825_at) / RFU C10orf10 (11716522_x_at) / Fold change /veh C10orf10 (11716522_x_at) / RFU KIR2DL2 /// KIR2DL4 /// KIR2DL5A /// KIR2DL5B /// KIR2DS1 /// KIR2DS2 /// KIR2DS3 /// KIR2DS4 /// KIR3DL3 /// KIR3DL3 /// KIR3DS1 (11738374_at) / Fold change /veh KIR2DL2 /// KIR2DL4 /// KIR2DL5A /// KIR2DL5B /// KIR2DS1 /// KIR2DS2 /// KIR2DS3 /// KIR2DS4 /// KIR3DL3 /// KIR3DL3 /// KIR3DS1 (11738374_at) / RFU C1QL1 (11718748_at) / Fold change /veh C1QL1 (11718748_at) / RFU TMPRSS4 (11747572_a_at) / Fold change /veh TMPRSS4 (11747572_a_at) / RFU HAMP (11756126_x_at) / Fold change /veh HAMP (11756126_x_at) / RFU RNFT2 (11725882_a_at) / Fold change /veh RNFT2 (11725882_a_at) / RFU NR4A2 (11747474_a_at) / Fold change /veh NR4A2 (11747474_a_at) / RFU ABCC12 (11746883_a_at) / Fold change /veh ABCC12 (11746883_a_at) / RFU TMEM136 (11760407_x_at) / Fold change /veh TMEM136 (11760407_x_at) / RFU CLDN22 /// WWC2 (11732394_at) / Fold change /veh CLDN22 /// WWC2 (11732394_at) / RFU HLA-DPB1 (11760878_x_at) / Fold change /veh HLA-DPB1 (11760878_x_at) / RFU SPINT1 (11716480_a_at) / Fold change /veh SPINT1 (11716480_a_at) / RFU GAP43 (11754022_s_at) / Fold change /veh GAP43 (11754022_s_at) / RFU A4GNT (11735810_at) / Fold change /veh A4GNT (11735810_at) / RFU PRB3 (11715151_x_at) / Fold change /veh PRB3 (11715151_x_at) / RFU TUBB4B (11761932_at) / Fold change /veh TUBB4B (11761932_at) / RFU CAPN14 (11732068_a_at) / Fold change /veh CAPN14 (11732068_a_at) / RFU TMCC2 (11721928_a_at) / Fold change /veh TMCC2 (11721928_a_at) / RFU IRGQ (11745062_a_at) / Fold change /veh IRGQ (11745062_a_at) / RFU FAM174B (11720279_a_at) / Fold change /veh FAM174B (11720279_a_at) / RFU TMPRSS4 (11748680_a_at) / Fold change /veh TMPRSS4 (11748680_a_at) / RFU FAM212B (11763350_a_at) / Fold change /veh FAM212B (11763350_a_at) / RFU PLEKHG5 (11743358_a_at) / Fold change /veh PLEKHG5 (11743358_a_at) / RFU ZSCAN30 (11745921_a_at) / Fold change /veh ZSCAN30 (11745921_a_at) / RFU CMKLR1 (11741424_a_at) / Fold change /veh CMKLR1 (11741424_a_at) / RFU LOC101060620 /// MAPK8IP1 (11723275_at) / Fold change /veh LOC101060620 /// MAPK8IP1 (11723275_at) / RFU SPTSSB (11747773_x_at) / Fold change /veh SPTSSB (11747773_x_at) / RFU PRSS12 (11739890_at) / Fold change /veh PRSS12 (11739890_at) / RFU BIN1 (11741810_x_at) / Fold change /veh BIN1 (11741810_x_at) / RFU WNT11 (11732464_a_at) / Fold change /veh WNT11 (11732464_a_at) / RFU C10orf10 (11716521_a_at) / Fold change /veh C10orf10 (11716521_a_at) / RFU C5orf56 (11738089_at) / Fold change /veh C5orf56 (11738089_at) / RFU CYB561 (11721691_x_at) / Fold change /veh CYB561 (11721691_x_at) / RFU ANKRD19P (11752326_a_at) / Fold change /veh ANKRD19P (11752326_a_at) / RFU OR2T12 /// OR2T33 /// OR2T8 (11738714_s_at) / Fold change /veh OR2T12 /// OR2T33 /// OR2T8 (11738714_s_at) / RFU VCAN (11748164_a_at) / Fold change /veh VCAN (11748164_a_at) / RFU JSRP1 (11732532_at) / Fold change /veh JSRP1 (11732532_at) / RFU KRTAP10-11 (11738290_x_at) / Fold change /veh KRTAP10-11 (11738290_x_at) / RFU MYO3A (11730013_a_at) / Fold change /veh MYO3A (11730013_a_at) / RFU EBF3 (11725865_a_at) / Fold change /veh EBF3 (11725865_a_at) / RFU CAMK2N1 (11719241_x_at) / Fold change /veh CAMK2N1 (11719241_x_at) / RFU C5orf56 (11738088_a_at) / Fold change /veh C5orf56 (11738088_a_at) / RFU OLFML3 (11715873_a_at) / Fold change /veh OLFML3 (11715873_a_at) / RFU LOC100653217 /// NTM (11731650_a_at) / Fold change /veh LOC100653217 /// NTM (11731650_a_at) / RFU MAPK11 (11762145_a_at) / Fold change /veh MAPK11 (11762145_a_at) / RFU FIZ1 (11724087_x_at) / Fold change /veh FIZ1 (11724087_x_at) / RFU OASL (11726364_x_at) / Fold change /veh OASL (11726364_x_at) / RFU SOX15 (11748057_x_at) / Fold change /veh SOX15 (11748057_x_at) / RFU CD79A (11719716_a_at) / Fold change /veh CD79A (11719716_a_at) / RFU HIST1H1D (11736915_at) / Fold change /veh HIST1H1D (11736915_at) / RFU CASKIN2 (11723855_a_at) / Fold change /veh CASKIN2 (11723855_a_at) / RFU LOC730098 (11760151_x_at) / Fold change /veh LOC730098 (11760151_x_at) / RFU OR4N2 (11742367_at) / Fold change /veh OR4N2 (11742367_at) / RFU PRRT2 (11749266_a_at) / Fold change /veh PRRT2 (11749266_a_at) / RFU SNX32 (11753110_a_at) / Fold change /veh SNX32 (11753110_a_at) / RFU CDHR5 (11726645_a_at) / Fold change /veh CDHR5 (11726645_a_at) / RFU RCAN1 (11760418_a_at) / Fold change /veh RCAN1 (11760418_a_at) / RFU FAM167A (11723789_a_at) / Fold change /veh FAM167A (11723789_a_at) / RFU FAM26E (11764081_at) / Fold change /veh FAM26E (11764081_at) / RFU ISYNA1 (11749810_s_at) / Fold change /veh ISYNA1 (11749810_s_at) / RFU ACY1 (11761880_at) / Fold change /veh ACY1 (11761880_at) / RFU 11764098_at / Fold change /veh 11764098_at / RFU SAMD14 (11745864_x_at) / Fold change /veh SAMD14 (11745864_x_at) / RFU NPB (11741838_a_at) / Fold change /veh NPB (11741838_a_at) / RFU TMPRSS6 (11731388_a_at) / Fold change /veh TMPRSS6 (11731388_a_at) / RFU KRTAP10-2 (11738614_at) / Fold change /veh KRTAP10-2 (11738614_at) / RFU ARHGAP8 /// PRR5-ARHGAP8 (11727945_x_at) / Fold change /veh ARHGAP8 /// PRR5-ARHGAP8 (11727945_x_at) / RFU KRTAP5-7 /// NADSYN1 (11734609_at) / Fold change /veh KRTAP5-7 /// NADSYN1 (11734609_at) / RFU RASL12 (11751679_a_at) / Fold change /veh RASL12 (11751679_a_at) / RFU CDKN2B (11736163_a_at) / Fold change /veh CDKN2B (11736163_a_at) / RFU PRF1 (11729649_at) / Fold change /veh PRF1 (11729649_at) / RFU, ZNF638 /// ZNF638-IT1 / Fold change vs veh, ZNF638 /// ZNF638-IT1 / RFU, PANK3 / Fold change vs veh, PANK3 / RFU, SH3YL1 / Fold change vs veh, SH3YL1 / RFU, ZEB2 / Fold change vs veh, ZEB2 / RFU, NRIP1 / Fold change vs veh, NRIP1 / RFU, PTTG1IP / Fold change vs veh, PTTG1IP / RFU, CAPN2 / Fold change vs veh, CAPN2 / RFU, MED14 / Fold change vs veh, MED14 / RFU, SNORA58 / Fold change vs veh, SNORA58 / RFU, C1orf63 / Fold change vs veh, C1orf63 / RFU, LRRFIP1 / Fold change vs veh, LRRFIP1 / RFU, NDUFAF7 / Fold change vs veh, NDUFAF7 / RFU, SLC12A2 / Fold change vs veh, SLC12A2 / RFU, IBTK / Fold change vs veh, IBTK / RFU, ESF1 / Fold change vs veh, ESF1 / Fold change vs veh, TMEM50B / RFU, TAOK1 / Fold change vs veh, TAOK1 / RFU, ACBD3 / Fold change vs veh, ACBD3 / RFU, TMA16 / Fold change vs veh, TMA16 / RFU, RWDD3 / Fold change vs veh, RWDD3 / RFU, BCAT1 / Fold change vs veh, BCAT1 / RFU, EDEM3 / Fold change vs veh, EDEM3 / RFU, TMEM33 / Fold change vs veh, TMEM33 / RFU, WDR75 / Fold change vs veh, WDR75 / RFU, AHCTF1 / Fold change vs veh, AHCTF1 / RFU, TFRC / Fold change vs veh, TFRC / RFU, ZDHHC17 / Fold change vs veh, ZDHHC17 / RFU, NOM1 / Fold change vs veh, NOM1 / RFU, ARL8B / Fold change vs veh, ARL8B / RFU, ZBTB11 / Fold change vs veh, ZBTB11 / RFU, TAMM41 / Fold change vs veh, TAMM41 / RFU, KIAA1704 /// LOC100996395 / Fold change vs veh, KIAA1704 /// LOC100996395 / RFU, ING1 / Fold change vs veh, ING1 / RFU, TRMT61B / Fold change vs veh, TRMT61B / RFU, FUBP3 / Fold change vs veh, FUBP3 / RFU, TP53 / Fold change vs veh, TP53 / RFU, TNKS2 / Fold change vs veh, TNKS2 / RFU, ZFP14 / Fold change vs veh, ZFP14 / RFU, ACTR2 / Fold change vs veh, ACTR2 / RFU, PPP3R1 / Fold change vs veh, PPP3R1 / RFU, PIK3R1 / Fold change vs veh, PIK3R1 / RFU, HNRNPA1 / Fold change vs veh, HNRNPA1 / RFU, RNF170 / Fold change vs veh, RNF170 / RFU, ZNF28 / Fold change vs veh, ZNF28 / RFU, RNGTT / Fold change vs veh, RNGTT / RFU, OGT / Fold change vs veh, OGT / RFU, BRD1 / Fold change vs veh, BRD1 / RFU, MARS / Fold change vs veh, MARS / RFU, ZNF655 / Fold change vs veh, ZNF655 / RFU, FAHD1 / Fold change vs veh, FAHD1 / RFU, BDP1 / Fold change vs veh, BDP1 / RFU, LRRCC1 / Fold change vs veh, LRRCC1 / RFU, ARID1A / Fold change vs veh, ARID1A / RFU, ZNF146 / Fold change vs veh, ZNF146 / RFU, ZNF330 / Fold change vs veh, ZNF330 / RFU, GPN3 / Fold change vs veh, GPN3 / RFU, C9orf123 / Fold change vs veh, C9orf123 / RFU, N4BP2L2 / Fold change vs veh, N4BP2L2 / RFU, ARFIP1 / Fold change vs veh, ARFIP1 / RFU, FAM179B / Fold change vs veh, FAM179B / RFU, BCL10 / Fold change vs veh, BCL10 / RFU, UHRF1BP1L / Fold change vs veh, UHRF1BP1L / RFU, BET1 / Fold change vs veh, BET1 / RFU, CNOT2 / Fold change vs veh, CNOT2 / RFU, ZNF268 / Fold change vs veh, ZNF268 / Fold change vs veh, ZNF507 / RFU, DGCR2 / Fold change vs veh, DGCR2 / RFU, WDSUB1 / Fold change vs veh, WDSUB1 / Fold change vs veh, HSP90B1 /// MIR3652 / RFU, ADSS / Fold change vs veh, ADSS / RFU, GK / Fold change vs veh, GK / RFU, ZNF148 / Fold change vs veh, ZNF148 / RFU, TAF9 / Fold change vs veh, TAF9 / RFU, SLC1A5 / Fold change vs veh, SLC1A5 / RFU, SLMO2 / Fold change vs veh, SLMO2 / RFU, ABCC4 / Fold change vs veh, ABCC4 / RFU, LOC101060439 /// RAP1B / Fold change vs veh, LOC101060439 /// RAP1B / RFU, RFX7 / Fold change vs veh, RFX7 / RFU, GTPBP10 / Fold change vs veh, GTPBP10 / RFU, CNEP1R1 / Fold change vs veh, CNEP1R1 / RFU, BIVM-ERCC5 /// ERCC5 / Fold change vs veh, BIVM-ERCC5 /// ERCC5 / RFU, ILF3 / Fold change vs veh, ILF3 / RFU 11762660_at / Fold change /veh 11762660_at / RFU VCAN (11757783_s_at) / Fold change /veh VCAN (11757783_s_at) / RFU DDX43 (11728927_at) / Fold change /veh DDX43 (11728927_at) / RFU KRT8 (11758188_x_at) / Fold change /veh KRT8 (11758188_x_at) / RFU NKD1 (11759106_at) / Fold change /veh NKD1 (11759106_at) / RFU SRD5A1 (11742802_a_at) / Fold change /veh SRD5A1 (11742802_a_at) / RFU TPSAB1 /// TPSB2 (11721975_s_at) / Fold change /veh TPSAB1 /// TPSB2 (11721975_s_at) / RFU GSTM3 (11746129_a_at) / Fold change /veh GSTM3 (11746129_a_at) / RFU IL23R (11737362_x_at) / Fold change /veh IL23R (11737362_x_at) / RFU TMEM51 (11727254_a_at) / Fold change /veh TMEM51 (11727254_a_at) / RFU PIWIL2 (11732686_x_at) / Fold change /veh PIWIL2 (11732686_x_at) / RFU ORM1 (11744905_x_at) / Fold change /veh ORM1 (11744905_x_at) / RFU CCDC152 (11743942_at) / Fold change /veh CCDC152 (11743942_at) / RFU ECM1 (11717891_a_at) / Fold change /veh ECM1 (11717891_a_at) / RFU IL23R (11748794_a_at) / Fold change /veh IL23R (11748794_a_at) / RFU TNFAIP8L3 (11732012_x_at) / Fold change /veh TNFAIP8L3 (11732012_x_at) / RFU MBOAT4 (11741988_at) / Fold change /veh MBOAT4 (11741988_at) / RFU 11764193_at / Fold change /veh 11764193_at / RFU TMEM53 (11763286_at) / Fold change /veh TMEM53 (11763286_at) / RFU MAGEB2 (11727129_at) / Fold change /veh MAGEB2 (11727129_at) / RFU TMEM200A (11744735_a_at) / Fold change /veh TMEM200A (11744735_a_at) / RFU CCDC152 (11751479_a_at) / Fold change /veh CCDC152 (11751479_a_at) / RFU FAM211A (11726209_a_at) / Fold change /veh FAM211A (11726209_a_at) / RFU RGS16 (11746705_a_at) / Fold change /veh RGS16 (11746705_a_at) / RFU VCAN (11755009_s_at) / Fold change /veh VCAN (11755009_s_at) / RFU RHOB (11743442_s_at) / Fold change /veh RHOB (11743442_s_at) / RFU RGS16 (11720943_a_at) / Fold change /veh RGS16 (11720943_a_at) / RFU RGS16 (11720944_at) / Fold change /veh RGS16 (11720944_at) / RFU, VPS4B / Fold change vs veh, VPS4B / RFU, CREB1 / Fold change vs veh, CREB1 / RFU, DNAJC13 / Fold change vs veh, DNAJC13 / RFU, GNAQ / Fold change vs veh, GNAQ / RFU, CDK5R1 / Fold change vs veh, CDK5R1 / RFU, ZRANB3 / Fold change vs veh, ZRANB3 / RFU, CUL4A / Fold change vs veh, CUL4A / RFU, CCNY / Fold change vs veh, CCNY / RFU, UFL1 / Fold change vs veh, UFL1 / RFU, COG3 / Fold change vs veh, COG3 / RFU, DIAPH2 / Fold change vs veh, DIAPH2 / RFU, SKA2 / Fold change vs veh, SKA2 / RFU, AFF3 / Fold change vs veh, AFF3 / RFU, LMF1 / Fold change vs veh, LMF1 / RFU, IPO11 / Fold change vs veh, IPO11 / RFU, DFFB / Fold change vs veh, DFFB / RFU, FOXP1 / Fold change vs veh, FOXP1 / RFU, CARD8 / Fold change vs veh, CARD8 / RFU, STRN3 / Fold change vs veh, STRN3 / RFU, ADK / Fold change vs veh, ADK / RFU, RASSF2 / Fold change vs veh, RASSF2 / RFU, WIPF1 / Fold change vs veh, WIPF1 / RFU, LARP1B / Fold change vs veh, LARP1B / RFU, RASA1 / Fold change vs veh, RASA1 / RFU, RB1 / Fold change vs veh, RB1 / RFU, PPFIA1 / Fold change vs veh, PPFIA1 / RFU, MAT2A / Fold change vs veh, MAT2A / RFU, CCT5 / Fold change vs veh, CCT5 / RFU, WDR92 / Fold change vs veh, WDR92 / RFU, CUX1 / Fold change vs veh, CUX1 / RFU, TTC7A / Fold change vs veh, TTC7A / RFU, TMEM135 / Fold change vs veh, TMEM135 / RFU, DEPTOR / Fold change vs veh, DEPTOR / RFU, CPM / Fold change vs veh, CPM / RFU, DNAJB6 / Fold change vs veh, DNAJB6 / RFU, CACNA2D3 / Fold change vs veh, CACNA2D3 / RFU, DTX4 / Fold change vs veh, DTX4 / RFU, TFCP2 / Fold change vs veh, TFCP2 / RFU, GMCL1 /// GMCL1P1 / Fold change vs veh, GMCL1 /// GMCL1P1 / RFU, AEBP2 / Fold change vs veh, AEBP2 / RFU, SNHG1 /// SNORD22 /// SNORD25 /// SNORD26 /// SNORD27 /// SNORD28 /// SNORD29 /// SNORD31 / Fold change vs veh, SNHG1 /// SNORD22 /// SNORD25 /// SNORD26 /// SNORD27 /// SNORD28 /// SNORD29 /// SNORD31 / Fold change (Aza/veh), C12orf56 (ProbeSet 11735607_a_at) / Fold change (ACY-1035/veh), C12orf56 (ProbeSet 11735607_a_at) / Fold change (Aza/veh), FGFR1OP (ProbeSet 11751329_s_at) / Fold change (ACY-1035/veh), FGFR1OP (ProbeSet 11751329_s_at) / Fold change (Aza/veh), VPS36 (ProbeSet 11739960_a_at) / Fold change (ACY-1035/veh), VPS36 (ProbeSet 11739960_a_at) / RFU SYPL1 (11715823_x_at) / Fold change /veh SYPL1 (11715823_x_at) / RFU IGFBP7 (11715501_s_at) / Fold change /veh IGFBP7 (11715501_s_at) / RFU REEP3 (11722064_at) / Fold change /veh REEP3 (11722064_at) / RFU IGLL1 (11728026_x_at) / Fold change /veh IGLL1 (11728026_x_at): dose or concentration left out as unconfirmed", "conditions": "ProbeSet 11763895_x_at; LIST B", "data": [{"smiles": "Nc1ccc(-c2cccs2)cc1NC(=O)c1ccc2c(c1)cc(C1CC1)n2CCN1CCOCC1", "note": "[ACY-1035]", "values": [{"measurement": "RFU, SNORA58", "result": 14.97, "unit": "RFU"}]}]}
